{"source": "paper PMC7125101", "about": "“Molecular bases for HOIPINs-mediated inhibition of LUBAC and innate immune responses” (Communications Biology, 2020)", "key": {"HOIP": {"target": "T1, HOIP (Homo sapiens, UniProt Q96EP0)", "T1 construct": "gene RNF31; RING2-LDD domain, residues 853–1072", "experiment": "X-ray crystal structure at […] Å; also MALDI-TOF intact mass adduct (+[…]) on petit-LUBAC and inhibition of HOIP~ubiquitin thioester formation", "type": "binding"}, "HEK293T": {"system": "HEK293T", "experiment": "cells", "set-up": "species or system human tumour lines, mouse MEF; Cell viability after 72 h, CellTiter-Glo luminescent assay", "settings": "Homo sapiens, HEK-293T, 72 h", "source_text": "Importantly, the polymorphisms in HOIP are closely associated with ABC-DLBCL[23]. […] Therefore, we investigated the effect of HOIPINs on B cell lymphoma cells. […] In ABC-DLBCL cell lines, the phosphorylation of p105 and p65 and the expression of NF-κB target genes were suppressed by HOIPINs (Fig. 6d, e). Moreover, the phosphorylation of IκBα was decreased concomitantly with the reduced intracellular amounts of linear polyubiquitin in HOIPIN-1-treated HBL1 cells (an ABC-DLBCL cell line), but not in BJAB cells (a GCB-DLBCL cell line) (Fig. 6f). […] GCB-DLBCL cells (BJAB, SU-DHL-4, and HT) and ABC-DLBCL cells (TK, DLBCL2, and OYB) were cultured in the presence of DMSO or 10 μM HOIPIN-1. Taking the cell viabilities in the presence of DMSO as 100%, the relative cell viabilities of respective cell line in the presence of HOIPIN-1 were assessed by a CellTiter-Glo luminescent cell viability assay. b HOIPIN-8 enhanced the cell death of ABC-DLBCL cells than HOIPIN-1. DLBCL2 cells or BJAB cells were treated with DMSO, 10 μM HOIPIN-1, or 10 μM HOIPIN-8 for the indicated period, and the relative cell viabilities were assessed as in a. c Caspase activation in ABC-DLBCL cells by HOIPIN-8. […] Cells were treated and analyzed as in c. e HOIPIN-1 suppresses the expression of NF-κB target genes in ABC-DLBCL cells. […]"}, "Jurkat": {"system": "Jurkat", "experiment": "cells", "set-up": "species or system human tumour lines, HEK293T, mouse MEF; Cell viability after 72 h, CellTiter-Glo luminescent assay", "settings": "Homo sapiens, Jurkat, 72 h"}, "TK": {"system": "TK", "experiment": "cells", "set-up": "species or system human tumour lines, HEK293T, mouse MEF; Cell viability after 72 h, CellTiter-Glo luminescent assay", "settings": "Homo sapiens, HEK-293T, 72 h"}, "HBL1": {"system": "HBL1", "experiment": "cells", "set-up": "species or system human tumour lines, HEK293T, mouse MEF; Cell viability after 72 h, CellTiter-Glo luminescent assay", "settings": "HBL1, 72 h"}, "HeLa": {"system": "HeLa", "experiment": "cells", "set-up": "species or system human tumour lines, HEK293T, mouse MEF; Cell viability after 72 h, CellTiter-Glo luminescent assay", "settings": "Homo sapiens, HeLa, 72 h"}, "SU-DHL-4": {"system": "SU-DHL-4", "experiment": "cells", "set-up": "species or system human tumour lines, HEK293T, mouse MEF; Cell viability after 72 h, CellTiter-Glo luminescent assay", "settings": "Homo sapiens, SU-DHL-4, 72 h"}, "KM-H2": {"system": "KM-H2", "experiment": "cells", "set-up": "species or system human tumour lines, HEK293T, mouse MEF; Cell viability after 72 h, CellTiter-Glo luminescent assay", "settings": "Homo sapiens, KM-H2, 72 h"}, "Karpas1160P": {"system": "Karpas1160P", "experiment": "cells", "set-up": "species or system human tumour lines, HEK293T, mouse MEF; Cell viability after 72 h, CellTiter-Glo luminescent assay", "settings": "Homo sapiens, HEK-293T, 72 h"}, "DLBCL2": {"system": "DLBCL2", "experiment": "cells", "set-up": "species or system human tumour lines, HEK293T, mouse MEF; Cell viability after 72 h, CellTiter-Glo luminescent assay", "settings": "Homo sapiens, HEK-293T, 72 h; read-out: HOIPIN-1 (IC50)"}, "OYB": {"system": "OYB", "experiment": "cells", "set-up": "species or system human tumour lines, HEK293T, mouse MEF; Cell viability after 72 h, CellTiter-Glo luminescent assay", "settings": "Homo sapiens, HEK-293T, 72 h"}, "A549": {"system": "A549", "experiment": "cells", "set-up": "species or system human tumour lines, HEK293T, mouse MEF; Cell viability after 72 h, CellTiter-Glo luminescent assay", "settings": "Homo sapiens, A549, 72 h"}, "HT": {"system": "HT", "experiment": "cells", "set-up": "species or system human tumour lines, HEK293T, mouse MEF; Cell viability after 72 h, CellTiter-Glo luminescent assay", "settings": "Homo sapiens, HT, 72 h"}, "BJAB": {"system": "BJAB", "experiment": "cells", "set-up": "species or system human tumour lines, HEK293T, mouse MEF; Cell viability after 72 h, CellTiter-Glo luminescent assay", "settings": "Homo sapiens, BJAB, 72 h"}, "cpdm MEF": {"system": "T2, cpdm MEF", "T2 construct": "cpdm (Sharpin-deficient)", "experiment": "cells", "set-up": "species or system human tumour lines, HEK293T, mouse MEF; Cell viability after 72 h, CellTiter-Glo luminescent assay", "settings": "72 h", "source_text": "(§1) Importantly, the polymorphisms in HOIP are closely associated with ABC-DLBCL[23]. […] Therefore, we investigated the effect of HOIPINs on B cell lymphoma cells. […] In ABC-DLBCL cell lines, the phosphorylation of p105 and p65 and the expression of NF-κB target genes were suppressed by HOIPINs (Fig. 6d, e). Moreover, the phosphorylation of IκBα was decreased concomitantly with the reduced intracellular amounts of linear polyubiquitin in HOIPIN-1-treated HBL1 cells (an ABC-DLBCL cell line), but not in BJAB cells (a GCB-DLBCL cell line) (Fig. 6f). […] GCB-DLBCL cells (BJAB, SU-DHL-4, and HT) and ABC-DLBCL cells (TK, DLBCL2, and OYB) were cultured in the presence of DMSO or 10 μM HOIPIN-1. Taking the cell viabilities in the presence of DMSO as 100%, the relative cell viabilities of respective cell line in the presence of HOIPIN-1 were assessed by a CellTiter-Glo luminescent cell viability assay. b HOIPIN-8 enhanced the cell death of ABC-DLBCL cells than HOIPIN-1. DLBCL2 cells or BJAB cells were treated with DMSO, 10 μM HOIPIN-1, or 10 μM HOIPIN-8 for the indicated period, and the relative cell viabilities were assessed as in a. c Caspase activation in ABC-DLBCL cells by HOIPIN-8. Cells were treated with or without 10 μM HOIPIN-8 for 24 h, and cell lysates were immunoblotted with the indicated antibodies. d Reduced NF-κB activation in ABC-DLBCL cells by HOIPIN-8. Cells were treated and analyzed as in c. e HOIPIN-1 suppresses the expression of NF-κB target genes in ABC-DLBCL cells. Cells were treated with 10 μM HOIPIN-1 for 24 h, and qPCR analyses were performed. f Intracellular linear ubiquitin and IκBα phosphorylation in ABC-DLBCL cells are diminished by HOIPIN-1. HBL1 and BJAB cells were treated with 10 μM HOIPIN-1 for the indicated period, and cell lysates were immunoblotted with the indicated antibodies. g HOIPIN-8 has potent inhibitory effects on NF-κB activation and linear ubiquitination in ABC-DLBCL cells than those in HOIPIN-1. HBL1 cells were treated with the indicated concentrations of HOIPIN-1 or -8 for 24 h, and cell lysates were immunoblotted with the indicated antibodies. In b, e, data are shown as mean ± SEM, NS not significant, *P < 0.05, **P < 0.01, ***P < 0.001, ****P < 0.0001, by one-way ANOVA with Tukey’s post hoc test. A549, HEK293T, HeLa (ATCC), optineurin-deficient HeLa[31], HOIP-deficient HeLa, C885A mutant of HOIP-restored HeLa, wild-type MEF, and Sharpin-deficient cpdm MEF cells were cultured in DMEM containing 10% fetal bovine serum, 100 IU/ml penicillin G, and 100 μg/ml streptomycin. […]"}, "WT-MEF": {"system": "WT-MEF", "experiment": "cells", "set-up": "species or system human tumour lines, HEK293T, mouse MEF; Cell viability after 72 h, CellTiter-Glo luminescent assay", "settings": "72 h", "source_text": "as §1"}}, "note": "pIC50: −log10 of the molar value. Counter-ions that a name gives are not always drawn. Like-named read-outs stand apart in the source and are kept apart here."}
{"smiles": "COc1ccccc1C(=O)/C=C/c1ccccc1C(=O)O", "note": "[HOIPIN-1, 2-[(1E)-3-(2-methoxyphenyl)-3-oxoprop-1-en-1yl] benzoic acid sodium salt]", "values": [{"measurement": "X-ray crystal structure at 1.54 Å; also MALDI-TOF intact mass adduct (+263) on p", "setting": "HOIP", "result": "HOIPINs are covalently attached to the catalytic Cys885 of HOIP via Michael addition"}, {"measurement": "pIC50", "setting": "HEK293T; read-out: HOIPIN-1 (IC50)", "result": 4.39}, {"measurement": "pIC50", "setting": "Jurkat; read-out: HOIPIN-1 (IC50)", "result": 4.69}, {"measurement": "pIC50", "setting": "TK; read-out: HOIPIN-1 (IC50)", "result": 5.01}, {"measurement": "pIC50", "setting": "HBL1; read-out: HOIPIN-1 (IC50)", "result": 4.79}, {"measurement": "pIC50", "setting": "HeLa; read-out: HOIPIN-1 (IC50)", "result": 4.47}, {"measurement": "pIC50", "setting": "SU-DHL-4; read-out: HOIPIN-1 (IC50)", "result": 4.33}, {"measurement": "pIC50", "setting": "KM-H2; read-out: HOIPIN-1 (IC50)", "result": 5.02}, {"measurement": "pIC50", "setting": "Karpas1160P; read-out: HOIPIN-1 (IC50)", "result": 4.96}, {"measurement": "pIC50", "setting": "DLBCL2", "result": 4.95}, {"measurement": "pIC50", "setting": "OYB; read-out: HOIPIN-1 (IC50)", "result": 4.80}, {"measurement": "pIC50", "setting": "A549; read-out: HOIPIN-1 (IC50)", "result": "< 4.00"}, {"measurement": "pIC50", "setting": "HT; read-out: HOIPIN-1 (IC50)", "result": 4.32}, {"measurement": "pIC50", "setting": "BJAB; read-out: HOIPIN-1 (IC50)", "result": 4.28}, {"measurement": "pIC50", "setting": "cpdm MEF; read-out: HOIPIN-1 (IC50)", "result": "< 4.00"}, {"measurement": "pIC50", "setting": "WT-MEF; read-out: HOIPIN-1 (IC50)", "result": "< 4.00"}]}
{"smiles": "Cn1cc(-c2ccc(C(=O)O)c(/C=C/C(=O)c3c(F)cc(-c4cn[nH]c4)cc3F)c2)cn1", "note": "[HOIPIN-8, 2-{(E)-3-[2,6-difluoro-4-(1H-pyrazol-4-yl)-phenyl]-3-oxo-propenyl}-4-(1-methyl-1H-pyraol-4-yl)-benzoic acid sodium salt]", "values": [{"measurement": "pIC50", "setting": "HEK293T; read-out: HOIPIN-8 (IC50)", "result": 4.15}, {"measurement": "pIC50", "setting": "Jurkat; read-out: HOIPIN-8 (IC50)", "result": "< 4.00"}, {"measurement": "pIC50", "setting": "TK; read-out: HOIPIN-8 (IC50)", "result": 5.43}, {"measurement": "pIC50", "setting": "HBL1; read-out: HOIPIN-8 (IC50)", "result": 4.78}, {"measurement": "pIC50", "setting": "HeLa; read-out: HOIPIN-8 (IC50)", "result": "< 4.00"}, {"measurement": "pIC50", "setting": "SU-DHL-4; read-out: HOIPIN-8 (IC50)", "result": "< 4.52"}, {"measurement": "pIC50", "setting": "KM-H2; read-out: HOIPIN-8 (IC50)", "result": 4.39}, {"measurement": "pIC50", "setting": "Karpas1160P; read-out: HOIPIN-8 (IC50)", "result": 4.56}, {"measurement": "pIC50", "setting": "OYB; read-out: HOIPIN-8 (IC50)", "result": 4.84}, {"measurement": "pIC50", "setting": "A549; read-out: HOIPIN-8 (IC50)", "result": "< 4.00"}, {"measurement": "pIC50", "setting": "HT; read-out: HOIPIN-8 (IC50)", "result": "< 4.52"}, {"measurement": "pIC50", "setting": "BJAB; read-out: HOIPIN-8 (IC50)", "result": "< 4.52"}, {"measurement": "pIC50", "setting": "cpdm MEF; read-out: HOIPIN-8 (IC50)", "result": 4.29}, {"measurement": "pIC50", "setting": "WT-MEF; read-out: HOIPIN-8 (IC50)", "result": 4.30}]}
